Test results taken from patent US10000437B2, “Nitrogen containing surfactants with alkoxylation on the hydroxyl group of fatty chains” (Akzo Nobel Chemicals International B.V., priority 2013, dated 2018).

How the values were obtained:
Type in all cases: in vivo
morning glory = test: Greenhouse trial: castor oil ethoxylate derivatives with glyphosate, morning glory (Example 25); conditions: 300 g ae/HA glyphosate; 4 weeks after treatment; ranking from picture
Protocol: (§1) A greenhouse trial was conducted by spraying solutions of 300 g ae/HA of IPA-glyphosate on wheat. The glyphosate formulation was based on 360 g/L IPA containing 10% active surfactant. Wheat was used as the “weed” because it germinates smoothly and it is a good species for herbicide study. The untreated check (UTC) was sprayed with only water. Pot 150 was sprayed with glyphosate only solution. Pot 149 was sprayed with glyphosate solution containing tallowamine-15EO (TAE15). TAE15 is the most common surfactant used to enhance glyphosate efficacy.
The condition and treatment of example 25 was identical to example 23 except that example 25 used morning glory instead of wheat.

wheat [1] = test: Greenhouse trial: hydroxylated soybean oil derivatives with glyphosate, wheat, visual inspection (Example 24); conditions: 300 g ae/HA IPA-glyphosate sprayed on wheat, 10% active surfactant, 4 weeks after treatment
Protocol: as §1
A separate set of test was conducted for these surfactants. The condition and treatment of example 24 was identical to example 23. […] In this case % growth control is a qualitative data obtained by visual inspection of the plants. The data clearly indicates glyphosate solutions containing surfactant according to the present invention provides enhanced growth control than glyphosate only, thus acting as an adjuvant.

wheat [2] = test: Greenhouse trial: bioefficacy enhancing effect of surfactants on glyphosate, wheat (Example 23); conditions: 300 g ae/HA IPA-glyphosate sprayed on wheat; 360 g/L IPA formulation with 10% active surfactant; 4 weeks after treatment; from fresh weight
Protocol: as §1
Plants were sprayed with glyphosate solutions containing surfactant according to the present invention. Table below lists the various surfactants and their corresponding pots. Percent growth control data for 4 weeks after treatment is also shown in this table as well. Percent growth control data was obtained from the fresh weight of these plants. The data clearly indicates glyphosate solutions containing surfactant according to the present invention provides better growth control than glyphosate only, thus acting as an adjuvant. In many cases the adjuvancy is equal to that of TAE15.

## CC(C)N.O=C(O)CNCP(=O)(O)O [IPA Glyphosate alone, IPA-glyphosate]
Morning glory
  morningglory control compared with tallowamine-15EO: didn't show much control
Wheat [1]
  % Growth Control (qualitative): 55%
Wheat [2]
  % Growth Control: 66%
